The NIST ThermoML archive (doi:10.1016/j.fluid.2008.11.013)
Numbers after ± are expanded uncertainties.

Assay: activity coefficient (dimensionless); of the first substance listed, at infinite dilution; xn = mol fraction of the nth substance listed
Conditions: Liquid, Chromatography, x1 = 0

SMILES: C=CCCC [1-pentene] + CCCCCC[N+]1(C)CCCC1.O=S(=O)([N-]S(=O)(=O)C(F)(F)F)C(F)(F)F
- activity coefficient (303.16 K): 3.4 ± 0.15
- activity coefficient (313.17 K): 3.37 ± 0.15
- activity coefficient (323.15 K): 3.33 ± 0.15
- activity coefficient (333.15 K): 3.31 ± 0.15

SMILES: CCCCCCCCCC [decane] + CCCCCC[N+]1(C)CCCC1.O=S(=O)([N-]S(=O)(=O)C(F)(F)F)C(F)(F)F
- activity coefficient (303.13 K): 28.1 ± 1.3
- activity coefficient (313.17 K): 27 ± 1.2
- activity coefficient (323.16 K): 25.1 ± 1.2
- activity coefficient (333.16 K): 24.3 ± 1.1
- activity coefficient (343.13 K): 23 ± 1.1

SMILES: CCCCCCC [heptane] + CCCCCCCC[N+]1(C)CCCC1.O=S(=O)([N-]S(=O)(=O)C(F)(F)F)C(F)(F)F
- activity coefficient (303.1 K): 6.9 ± 0.32
- activity coefficient (313.15 K): 6.73 ± 0.31
- activity coefficient (323.09 K): 6.54 ± 0.3
- activity coefficient (333.13 K): 6.36 ± 0.29

SMILES: CCCCCCC [heptane] + CCCCCC[N+]1(C)CCCC1.O=S(=O)([N-]S(=O)(=O)C(F)(F)F)C(F)(F)F
- activity coefficient (303.16 K): 11.4 ± 0.52
- activity coefficient (313.16 K): 10.8 ± 0.49
- activity coefficient (323.15 K): 10.3 ± 0.47
- activity coefficient (333.12 K): 9.89 ± 0.45

SMILES: C=CCCCC [hex-1-ene] + CCCCCCCC[N+]1(C)CCCC1.O=S(=O)([N-]S(=O)(=O)C(F)(F)F)C(F)(F)F
- activity coefficient (303.14 K): 3.11 ± 0.14
- activity coefficient (313.13 K): 3.29 ± 0.15
- activity coefficient (323.11 K): 3.22 ± 0.15
- activity coefficient (343.11 K): 3.15 ± 0.14

SMILES: C=CCCCC [hex-1-ene] + CCCCCC[N+]1(C)CCCC1.O=S(=O)([N-]S(=O)(=O)C(F)(F)F)C(F)(F)F
- activity coefficient (303.16 K): 4.77 ± 0.22
- activity coefficient (313.17 K): 4.63 ± 0.21
- activity coefficient (323.15 K): 4.55 ± 0.21
- activity coefficient (333.15 K): 4.45 ± 0.2

SMILES: CCCCCC [hexane] + CCCCCCCC[N+]1(C)CCCC1.O=S(=O)([N-]S(=O)(=O)C(F)(F)F)C(F)(F)F
- activity coefficient (303.16 K): 5.24 ± 0.24
- activity coefficient (313.13 K): 5.05 ± 0.23
- activity coefficient (323.17 K): 4.9 ± 0.22
- activity coefficient (333.19 K): 4.8 ± 0.22

SMILES: CCCCCC [hexane] + CCCCCC[N+]1(C)CCCC1.O=S(=O)([N-]S(=O)(=O)C(F)(F)F)C(F)(F)F
- activity coefficient (303.15 K): 8.4 ± 0.39
- activity coefficient (313.19 K): 7.85 ± 0.36
- activity coefficient (323.16 K): 7.21 ± 0.33
- activity coefficient (333.14 K): 6.57 ± 0.3

SMILES: CCCCCCCCC [nonane] + CCCCCC[N+]1(C)CCCC1.O=S(=O)([N-]S(=O)(=O)C(F)(F)F)C(F)(F)F
- activity coefficient (303.13 K): 21.4 ± 0.99
- activity coefficient (313.17 K): 19.9 ± 0.92
- activity coefficient (323.16 K): 18.8 ± 0.87
- activity coefficient (333.16 K): 18.1 ± 0.84
- activity coefficient (343.13 K): 17.1 ± 0.79

SMILES: C=CCCCCCC [oct-1-ene] + CCCCCCCC[N+]1(C)CCCC1.O=S(=O)([N-]S(=O)(=O)C(F)(F)F)C(F)(F)F
- activity coefficient (313.11 K): 5.53 ± 0.25
- activity coefficient (323.14 K): 5.4 ± 0.25
- activity coefficient (333.17 K): 5.27 ± 0.24
- activity coefficient (343.21 K): 5.21 ± 0.24

SMILES: C=CCCCCCC [oct-1-ene] + CCCCCC[N+]1(C)CCCC1.O=S(=O)([N-]S(=O)(=O)C(F)(F)F)C(F)(F)F
- activity coefficient (303.14 K): 8.93 ± 0.41
- activity coefficient (313.16 K): 8.61 ± 0.4
- activity coefficient (323.37 K): 8.39 ± 0.38
- activity coefficient (333.16 K): 8.2 ± 0.38

SMILES: CCCCCCCC [octane] + CCCCCCCC[N+]1(C)CCCC1.O=S(=O)([N-]S(=O)(=O)C(F)(F)F)C(F)(F)F
- activity coefficient (303.1 K): 8.78 ± 0.4
- activity coefficient (313.15 K): 8.55 ± 0.39
- activity coefficient (323.09 K): 8.39 ± 0.38
- activity coefficient (333.13 K): 8.22 ± 0.38

SMILES: CCCCCCCC [octane] + CCCCCC[N+]1(C)CCCC1.O=S(=O)([N-]S(=O)(=O)C(F)(F)F)C(F)(F)F
- activity coefficient (303.16 K): 15.8 ± 0.73
- activity coefficient (313.16 K): 14.7 ± 0.68
- activity coefficient (323.15 K): 13.9 ± 0.64
- activity coefficient (333.12 K): 13.3 ± 0.61

SMILES: CCCCC [pentane] + CCCCCC[N+]1(C)CCCC1.O=S(=O)([N-]S(=O)(=O)C(F)(F)F)C(F)(F)F
- activity coefficient (303.15 K): 5.66 ± 0.26
- activity coefficient (313.19 K): 5.31 ± 0.24
- activity coefficient (323.16 K): 4.8 ± 0.22
- activity coefficient (333.14 K): 4.51 ± 0.21
